Laboratory results as given in patent publication US8158360B2, “Effects of inhibitors of FGFR3 on gene transcription” (priority 2005, dated 2012).

Assays:
Assay in all cases: Sensitivity of multiple myeloma cell line to CHIR-258 treatment
Format in all cases: cell-based, human
KMS11 = settings: KMS11: Ras WT, FGFR3Y373C mutant
KMS18 = settings: KMS18: Ras WT, FGFR3G384D mutant
H929 = settings: H929: N13 Ras mutant, FGFR3 wild-type (WT)
U266 = settings: U266: Ras WT, FGFR3 negative
UTMC2 = settings: UTMC2: Ras WT, FGFR3WT

## CN1CCN(c2ccc3nc(-c4c(N)c5c(F)cccc5[nH]c4=O)[nH]c3c2)CC1 [CHIR-258, 4-Amino-5-fluoro-3-[6-(4-methylpiperazin-1-yl)-1H-benzimidazol-2-yl]quinolin-2(1H)-one]
KMS11
  sensitivity of cell line to treatment: sensitive
KMS18
  sensitivity of cell line to treatment: sensitive
H929
  sensitivity of cell line to treatment: resistant
U266
  sensitivity of cell line to treatment: resistant
UTMC2
  sensitivity of cell line to treatment: resistant
